“Also recorded” adds a separate entry of the source.
Tests used:
Assay type in all cases: in vivo, mouse
B16F10 melanoma tumors = experiment: Syngeneic B16F10 melanoma tumor growth after irradiation; conditions: B16F10 in C57BL/6 mice
Protocol: (§1) FIG. 19. CD47 suppression enhances re-growth delay in irradiated syngeneic B16 melanoma and squamous cell carcinoma tumors but increases radioresistance of B16 cells in vitro. C57BL/6 mice were injected with 1×10^6 B16 mouse melanoma cells into their right hindlimbs. Five days later, the mice were randomized into 4 groups (12 mice in each group) where they either received injections of CD47 morpholino (10 μM) in sterile PBS, PBS, or no injection. The two groups receiving injections were then subjected to radiation (10 Gy) to the effected hindlimb 48 hours later. The other two groups served as controls and consisted of tumor alone or tumor subjected to only the morpholino. Tumors were followed post-radiation for 30 days, measuring their volume every 6 days (FIG. 19A). Results are presented as the mean±SD of 12 mice in each treatment group and are representative of 3 independent studies. These same experimental treatment conditions were tested using another syngeneic tumor cell line (SCC VII) in C3H mice and followed for 15 days where similar results were found after injecting 1.5×10^5 cells (FIG. 19B). Results are presented as the mean±SD of 10 mice (C3II) in each treatment group and are representative of 3 independent studies. B16 mouse melanoma cells were plated on 96-well plates in standard growth medium. Cells were treated with peptide 7N3 or CD47 morpholino and received a radiation dose of 10 Gy (FIG. 19C; *p<0.05, #p<0.01). Cell (mitochondrial) viability was measured 48 hours post radiation using the MTT assay.
Tumor Establishment and Irradiation. C57 B16 mice were injected in the right hindlimb with 1×10^6 B16F10 melanoma cells, and tumors were allowed to establish for 1 week. After tumor incorporation, the hind limbs were treated with either the CD47 morpholino or sterile phosphate buffered saline (PBS). Forty-eight hours later, all mice were subjected to right hind limb irradiation (10 Gy). The mice were observed and tumor size determined twice a week by the same individual until lesion size necessitated animal euthanasia. […]

SCC VII = SCC VII squamous cell carcinoma tumor growth after irradiation in C3H mice; conditions: IP morpholino 48 hours before irradiation
Protocol: as §1, with “These same experimental treatment conditions were tested using another syngeneic tumor cell line (SCC VII) in C3H mice and followed for 15 days where similar results were found after injecting 1.5×10^5 cells (FIG. 19B). Results are presented as the mean±SD of 10 mice (C3II) in each treatment group and are representative of 3 independent studies. B16 mouse melanoma cells were plated on 96-well plates in standard growth medium. Cells were treated with peptide 7N3 or CD47 morpholino and received a radiation dose of 10 Gy (FIG. 19C; *p<0.05, #p<0.01).” left out
FIG. 20. […] Tumor growth was assessed as above. […]
In other experiments, C3H mice were injected in the right hindlimb with either 1.5×10^5 SCC VII cells, and tumors were allowed to establish for 1 week. […] The mice were observed and tumor size determined two to three times a week by the same individual until lesion size necessitated animal euthanasia.

B16 melanoma tumors = experiment: Histology, TUNEL and CD68 staining of irradiated B16 tumors; conditions: morpholino 48 hours before 10 Gy, 24 hours post-radiation
Protocol: FIG. 21. Increased fibrotic response, viable immune reaction, and macrophage infiltration is seen in tumors with suppressed CD47 expression. C57BL/6 mice were injected with 1×10^6 B16 mouse melanoma cells into their hind limbs. Treatment consisted of two groups where the hind limbs were treated with either 150 μl of PBS or 150 μl of CD47 morpholino (10 μM) 48 hours prior to radiation (10 Gy). The control group consisted of just tumor without radiation. 24 hours post-radiation the mice were sacrificed, and their hindlimbs were prepared in paraffin embedded tissue sections for analysis. The top panels represent hind limbs and tumors in each group stained by standard H&E protocol (FIG. 21A). […] Positive (apoptotic) cells are indicated by brown nuclear staining (FIG. 21B). […] Dark staining within the tumor indicates macrophage infiltration. Images were acquired using either a 4× or 10× objective.
Immunohistochemical Evaluation: Staining for the macrophage marker CD68 was done as previously described (Manso et al., Cancer Res 68:7090-7099, 2008) utilizing a rat anti-mouse CD68 antibody (AbD Serotec, Raleigh, N.C.). H&E staining of tissue hind limbs was prepared by American HistoLabs, Gaithersburg, Md.
Tissue Apoptosis: The ApopTag in situ detection kit (Chemicon, Millipore, Mass.) was used as described in Example 1. Additionally, animals were injected with 1×10^6 B16 melanoma cells and treated with either CD47 morpholino or sterile PBS as previously described. Mice were sacrificed 24 hours post irradiation (10 Gy), and hind limbs were embedded in paraffin blocks. Tissue sections incorporating the entire hind limb were examined for apoptosis employing 3′-hydroxy DNA strand breaks enzymatically labeled with digoxygenin nucleotide via TdT. Positive and negative control slides provided with the kit are used in each assay to ensure consistency.

## CGTCACAGGCAGGACCCACTGCCCA (all phosphorodiamidate morpholino (PMO)) [CD47 morpholino, CD47 targeting morpholino oligonucleotide]
B16F10 melanoma tumors; morpholino 48 hours before 10 Gy
  tumor ablation / re-growth delay with irradiation: dramatically increased tumor ablation
B16F10 melanoma tumors; morpholino alone
  tumor growth without irradiation: only slightly delayed tumor growth
B16F10 melanoma tumors; morpholino then 10 Gy
  normal tissue injury in tumor-bearing irradiated limbs: minimal alopecia and no other morphologic or histologic evidence of tissue injury
SCC VII
  tumor growth delay, intraperitoneal versus local administration: as effective as local delivery; also recorded: equivalent delay in tumor growth
B16 melanoma tumors
  H&E of irradiated tumors (fibrosis, necrosis): greater fibrosis and necrotic response
  apoptotic cells associated with the tumor (TUNEL): minimal numbers of apoptotic cells
  macrophage marker CD68 staining of tumors: positive staining in the periphery
